{"source": "patent US10752613B2", "about": "“Compounds and their use for reducing uric acid levels” (Acquist LLC, priority 2016, dated 2020)", "target": "xanthine oxidase (Homo sapiens (Human), UniProt P47989)", "sequence (P47989 whole entry, species assumed)": "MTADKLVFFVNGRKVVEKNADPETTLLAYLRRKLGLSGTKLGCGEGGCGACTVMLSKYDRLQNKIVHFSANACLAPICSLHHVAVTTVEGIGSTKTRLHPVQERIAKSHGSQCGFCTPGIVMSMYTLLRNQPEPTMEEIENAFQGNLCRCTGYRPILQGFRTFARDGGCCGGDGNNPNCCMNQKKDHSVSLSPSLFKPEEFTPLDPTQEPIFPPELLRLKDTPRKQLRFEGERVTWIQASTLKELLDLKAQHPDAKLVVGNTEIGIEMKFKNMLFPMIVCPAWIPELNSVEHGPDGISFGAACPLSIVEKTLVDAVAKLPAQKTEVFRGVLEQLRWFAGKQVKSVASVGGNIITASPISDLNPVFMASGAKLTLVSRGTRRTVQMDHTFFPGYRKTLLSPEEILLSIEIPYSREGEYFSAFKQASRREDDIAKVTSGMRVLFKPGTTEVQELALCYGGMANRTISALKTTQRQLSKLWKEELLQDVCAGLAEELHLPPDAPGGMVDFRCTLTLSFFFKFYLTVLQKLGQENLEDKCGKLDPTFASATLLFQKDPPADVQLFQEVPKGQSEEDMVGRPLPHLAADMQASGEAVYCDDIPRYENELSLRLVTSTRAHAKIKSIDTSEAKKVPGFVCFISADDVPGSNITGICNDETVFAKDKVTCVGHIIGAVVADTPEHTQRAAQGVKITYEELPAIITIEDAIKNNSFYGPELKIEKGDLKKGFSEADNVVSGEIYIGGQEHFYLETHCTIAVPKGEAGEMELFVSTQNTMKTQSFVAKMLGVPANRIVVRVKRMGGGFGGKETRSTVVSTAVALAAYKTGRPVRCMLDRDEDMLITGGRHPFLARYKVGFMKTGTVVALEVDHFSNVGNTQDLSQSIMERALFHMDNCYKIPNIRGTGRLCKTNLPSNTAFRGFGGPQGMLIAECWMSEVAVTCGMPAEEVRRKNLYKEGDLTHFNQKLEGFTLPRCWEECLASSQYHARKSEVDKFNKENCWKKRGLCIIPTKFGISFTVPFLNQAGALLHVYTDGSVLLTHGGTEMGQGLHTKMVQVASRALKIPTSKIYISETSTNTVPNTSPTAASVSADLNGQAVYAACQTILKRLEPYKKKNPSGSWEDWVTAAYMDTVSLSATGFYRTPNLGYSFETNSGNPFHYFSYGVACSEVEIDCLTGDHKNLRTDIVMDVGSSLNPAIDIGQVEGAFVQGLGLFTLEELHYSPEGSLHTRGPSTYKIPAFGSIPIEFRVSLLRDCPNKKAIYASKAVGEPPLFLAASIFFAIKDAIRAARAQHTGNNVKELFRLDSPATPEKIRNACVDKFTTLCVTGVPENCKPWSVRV", "experiment": "Fluorescence-based xanthine oxidase activity assay", "assay_type": "biochemical", "details": "for IC50: fluorescence-based assay, triplicate, 10 concentrations; for Xanthine oxidase inhibition compared with allopurinol: comparison in words", "note": "“Also recorded” adds a separate entry of the source."}
{"smiles": "O=C(Nc1ccc(-c2cn[nH]c2)cc1)c1c(O)[nH]c(=O)[nH]c1=O", "note": "[Formula (If), N-(4-(1H-pyrazol-4-yl)phenyl)-6-hydroxy-2,4-dioxo-1,2,3,4-tetrahydropyrimidine-5-carboxamide]", "values": [{"measurement": "IC50", "result": 70.1, "unit": "µM"}]}
{"smiles": "O=C(Nc1ccc(-c2nc(C(F)(F)F)n[nH]2)cc1)c1c(O)[nH]c(=O)[nH]c1=O", "note": "[Formula (Ie), 6-hydroxy-2,4-dioxo-N-(4-(3-(trifluoromethyl)-1H-1,2,4-triazol-5-yl)phenyl)-1,2,3,4-tetrahydropyrimidine-5-carboxamide]", "values": [{"measurement": "IC50", "result": 14.5, "unit": "µM"}]}
{"smiles": "O=C(Nc1ccc(-c2[nH]ncc2C(F)(F)F)cc1)c1c(O)[nH]c(=O)[nH]c1=O", "note": "[Formula (Im), 6-hydroxy-2,4-dioxo-N-(4-(4-(trifluoromethyl)-1H-pyrazol-5-yl)phenyl)-1,2,3,4-tetrahydropyrimidine-5-carboxamide]", "values": [{"measurement": "IC50", "result": 25.2, "unit": "µM"}]}
{"smiles": "O=C(Nc1ccc(-c2c[nH]nn2)cc1C(F)(F)F)c1c(O)[nH]c(=O)[nH]c1=O", "note": "[Formula (Ih), N-(4-(1H-1,2,3-triazol-5-yl)-2-(trifluoromethyl)phenyl)-6-hydroxy-2,4-dioxo-1,2,3,4-tetrahydropyrimidine-5-carboxamide]", "values": [{"measurement": "Xanthine oxidase inhibition compared with allopurinol", "result": "more potent inhibitors of xanthine oxidase than allopurinol; also recorded: comparable to allopurinol"}, {"measurement": "IC50", "result": 1.2, "unit": "µM"}]}
{"smiles": "O=C(Nc1ccc(-c2cc(O)n[nH]2)cc1)c1c(O)[nH]c(=O)[nH]c1=O", "note": "[Formula (Ii), 6-hydroxy-N-(4-(3-hydroxy-1H-pyrazol-5-yl)phenyl)-2,4-dioxo-1,2,3,4-tetrahydropyrimidine-5-carboxamide]", "values": [{"measurement": "Xanthine oxidase inhibition compared with allopurinol", "result": "more potent inhibitors of xanthine oxidase than allopurinol"}, {"measurement": "IC50", "result": 1.3, "unit": "µM"}]}
{"smiles": "O=C(Nc1ccc(-c2c[nH]nn2)c(C(F)(F)F)c1)c1c(O)[nH]c(=O)[nH]c1=O", "note": "[Formula (Ig), N-(4-(1H-1,2,3-triazol-5-yl)-3-(trifluoromethyl)phenyl)-6-hydroxy-2,4-dioxo-1,2,3,4-tetrahydropyrimidine-5-carboxamide]", "values": [{"measurement": "Xanthine oxidase inhibition compared with allopurinol", "result": "comparable to allopurinol"}, {"measurement": "IC50", "result": 2.2, "unit": "µM"}]}
{"smiles": "O=C(Nc1ccc(-n2cc(C(F)(F)F)cn2)cc1)c1c(O)[nH]c(=O)[nH]c1=O", "note": "[Formula (Ik), 6-hydroxy-2,4-dioxo-N-(4-(4-(trifluoromethyl)-1H-pyrazol-1-yl)phenyl)-1,2,3,4-tetrahydropyrimidine-5-carboxamide]", "values": [{"measurement": "IC50", "result": 68, "unit": "µM"}]}
{"smiles": "O=C(Nc1ccc(-c2cc(C(F)(F)F)n[nH]2)cc1)c1c(O)[nH]c(=O)[nH]c1=O", "note": "[Formula (Il), 6-hydroxy-2,4-dioxo-N-(4-(3-(trifluoromethyl)-1H-pyrazol-5-yl)phenyl)-1,2,3,4-tetrahydropyrimidine-5-carboxamide]", "values": [{"measurement": "IC50", "result": 67.9, "unit": "µM"}]}
{"smiles": "O=C(Nc1cccc(-c2cn[nH]n2)c1)c1c(O)[nH]c(=O)[nH]c1=O", "note": "[Formula (Ia), N-(3-(1H-1,2,3-triazol-5-yl)phenyl)-6-hydroxy-2,4-dioxo-1,2,3,4-tetrahydropyrimidine-5-carboxamide]", "values": [{"measurement": "IC50", "result": 6.5, "unit": "µM"}]}
{"smiles": "O=C(Nc1ccc(-c2cn[nH]c2C(F)(F)F)cc1)c1c(O)[nH]c(=O)[nH]c1=O", "note": "[Formula (Ij), 6-hydroxy-2,4-dioxo-N-(4-(5-(trifluoromethyl)-1H-pyrazol-4-yl)phenyl)-1,2,3,4-tetrahydropyrimidine-5-carboxamide]", "values": [{"measurement": "IC50", "result": 16.3, "unit": "µM"}]}
{"smiles": "O=C(Nc1ccc(-c2nn[nH]c2-c2ccccc2)cc1)c1c(O)[nH]c(=O)[nH]c1=O", "note": "[Formula (Ic), 6-hydroxy-2,4-dioxo-N-(4-(4-phenyl-1H-1,2,3-triazol-5-yl)phenyl)-1,2,3,4-tetrahydropyrimidine-5-carboxamide]", "values": [{"measurement": "IC50", "result": 12.2, "unit": "µM"}]}
